Experimental data from patent publication US8445190B2, “Method of inhibiting biomaterial-induced procoagulant activity using complement inhibitors” (The Trustees of the University of Pennsylvania, priority 2008, dated 2013).
Where no end group is shown, it is not given here.

Columns and labels:
[1] = system: TF-dependent procoagulant activity of PMN culture supernatants; assay: modified prothrombin time (mPT) of supernatants of healthy PMNs incubated with ESRD hemodialysis serum; assay type: cell-based, human; conditions: for mPT values: FIG. 4A; for effect on procoagulant activity (mPT) induced by ESRD serum in PMN supernatants: in words, FIG. 1A / FIG. 4A
Source text: (§1) Complement and anaphylatoxin inhibition studies. I) Compstatin, a 13-residue cyclic peptide (Ac-I[CVWQDWGAHRTC]TNH2) that inhibits the cleavage of native C3 by the C3 convertase, was used as a specific inhibitor of complement activation at the C3 level. In certain studies, a compstatin analog (1-methyl tryptophan as the 4th residue) was used. […] II) SB-290152, a selective nonpeptide antagonist of the complement anaphylatoxin receptor C3aR, was used in this study to dissect the involvement of C3aR signalling in the generation of neutrophil derived TF [27]. III) To block C5aR stimulation on neutrophils, a small cyclic hexapeptide (AcF-[OPdChaWR]) that acts as a selective C5aR antagonist was used. Sera were pre-incubated for 30 min with Compstatin or its linear analogue (15 μM final concentration), before incubation with leukocytes. Furthermore, serum for stimulation was added to leukocytes that had been pre-incubated for 30 min with C3aRa or C5aRa (5-10 μM final concentration). Approximately […] washed cells from healthy donors were used for the subsequent incubations, The final volume was adjusted with PBS at 250 μl and the leukocytes were incubated for 90-120 min at 37° C.
Modified prothrombin time (mPT) assay to examine TF mediated coagulation activity in cell supernatants, complement inhibition and anaphylatoxin receptor studies. Since it has been shown previously that TF dependent procoagulant activity in leukocyte culture supernatants is altered after C5a/C5aR stimulation or blockade, the mPT method was used in order to estimate primarily the kinetics of TF induction. The presence of TF in supernatants is probably due to the presence of the soluble, spliced TF isoform or TF microparticles.
At the end of the incubation period, supernatants of cells were collected by centrifugation at 800 g for 10 min and were checked a second time to confirm the absence of cells and platelets. The coagulation activity properties (TF/FVIIa binding activity) of the cell supernatants were determined using a modified prothrombin time (mPT) assay. Briefly, after performing the “classic” PT test (100 μl platelet poor plasma [PPP] plus 200 μl thromboplastin ISI 1.7 (Instrumentation Laboratory, Milan, Italy), the modified PT analysis was carried out. Namely, 125 μl of cell supernatant and 75 μl thromboplastin were added to 100 μl of PPP to measure the changes of PT. As control of mPT, 125 μl of PBS was used instead of cell supernatant and the in vitro clotting time usually ranged from 31 to 34 sec.
To verify that the thromboplastic activity was due to TF alone, supernatants were incubated for 30 min with a specific neutralizing anti-TF monoclonal antibody (mAb, No 4509, American Diagnostica, Greenwich, Conn., USA), 10 μg/ml, at room temperature. PT was then measured by the mPT method. Non-specific controls involved incubation with the same subclass and concentration of mouse anti-human antibodies, as well as with different secondary antibodies.
Serum of ESRD patients exerts procoagulant activity through TF induction and follows a time dependent manner during the hemodialysis course. […] The procoagulant activity of the above cell culture supernatants was measured using the mPT method.

[2] = system: TF-dependent procoagulant activity of PMN culture supernatants; assay: mPT of PMN supernatants after incubation with serum preincubated with polysulfone hemodialysis filter fibers; assay type: cell-based, human; conditions: for mPT: FIG. 5C
Description: (§2) FIG. 5: Hemodialysis filter fibers induce in vitro TF dependent procoagulant properties in both ESRD and healthy serum through complement activation. […] C3b generation was detected by […]. CVF-activated plasma was used as a standard for 100% complement activation. The percentage of complement activation is depicted in the diagram. B: Serum from healthy donors was preincubated with hollow fibers from polysulfone hemodialysis filters at different time periods (10, 30, 60 & 120 min). PMNs were incubated with the pretreated serum and their supernatants were assayed for TF with mPT. A time-dependent procoagulant activity was observed (bar 2: 28.06±0.21, 3: 27.32±0.39, 4: 25.65±0.78, 5: 24.67±0.47, p<0.01 compared to bar 1: 31.81±0.28), which was blocked by the addition of anti-TF mAb in supernatants showing the highest procoagulant effect (bar 6: 31.49±0.12, p<0.05 compared to bar 5). C: Predialysis ESRD serum preincubated for 60 min with filter fibers, induced stronger procoagulant activity in PMN culture supernatants compared to when healthy serum was used (bars 3: 25.65±0.78, 6: 20.06±0.35, p<0.01 compared to bars 1: 33.12±0.25, 2: 29.07±0.33, respectively). Inhibitions with compstatin or C5aR antagonist, in both pre-treated sera, elucidated that the observed TF-dependent procoagulant activity was complement mediated (bars 4: 29.60±0.57, 5: 29.15±0.49 & 7: 26.85±0.21, 8: 26.05±0.35, p<0.01 compared to bars 3 and 6, respectively).
Complement and anaphylatoxin inhibition studies. I) Compstatin, a 13-residue cyclic peptide (Ac-I[CVWQDWGAHRTC]TNH2) that inhibits the cleavage of native C3 by the C3 convertase, was used as a specific inhibitor of complement activation at the C3 level. […]
At the end of the incubation period, supernatants of cells were collected by centrifugation at 800 g for 10 min and were checked a second time to confirm the absence of cells and platelets. The coagulation activity properties (TF/FVIIa binding activity) of the cell supernatants were determined using a modified prothrombin time (mPT) assay. […]

[3] = system: TF mRNA expression in PMNs; assay: real time RT-PCR of TF mRNA in PMNs incubated with activated ESRD serum; assay type: cell-based, human; conditions: FIG. 4B
Description: 4: Involvement of the complement pathway in the procoagulant properties of ESRD serum. […] In contrast, both a selective C3aR antagonist (10 μM-30 min) and a non-active linear analogue of compstatin had no effect on mPT values (bars 6, 7: 22.99±0.26 and 24.16±0.23, respectively; p: n.s. vs. bar 3).
as §1
RNA extraction, RT & relative quantitative real-time PCR analysis. […] In order to quantify the relative expression level of the two TF isoforms with coagulant properties [(full-length TF (referred to hereafter as ‘TF’) and alternative spliced TF (asTF)], isoform specific real-time PCR was performed. In each sample TF, asTF and GAPDH mRNA sequence-specific primers and probes for detection were applied. The 2^−DDCT method was used for quantification of the target gene expression.

[4] = system: complement activation (C3b generation); assay: C3b generation ELISA in plasma incubated with hemodialysis filter fibers; assay type: biochemical; conditions: in words; FIG. 5A; plasma with 15 mg fibers, over time, two concentrations
Description: as §2, with “Inhibitions with compstatin or C5aR antagonist, in both pre-treated sera, elucidated that the observed TF-dependent procoagulant activity was complement mediated (bars 4: 29.60±0.57, 5: 29.15±0.49 & 7: 26.85±0.21, 8: 26.05±0.35, p<0.01 compared to bars 3 and 6, respectively).” left out

[5] = system: complement activation (C3b); assay: hemodialysis simulation with whole blood: ELISA of C3 cleavage products (C3-9 mAb) in plasma; assay type: biochemical, human; conditions: in words; 40 uM in whole blood circuit; FIG. 7A
Source text: (§3) FIG. 7. Complement activation during hemodialysis simulation is reduced or prevented by a compstatin analog. […] A: ELISA detection of complement activation fragment C3b using a C3-9 mAB. B: Detection of cellular cascade activation by flow cytometry after surface staining of blood neutrophils for CD11b. C: Detection of coagulation cascade activation by flow cytometry after intracellular staining of blood neutrophils for tissue factor (TF).
(§4) Whole blood was collected from healthy volunteers. […] All experiments were started within 30 min after blood collection.
(§5) To minimize the blood volume needed, HPH Junior polysulfone dialyzers (Minntech Corporation) were used. Standard bloodline components served as tubing system (Arterial & venous blood lines, Set a/v for Fresenius 2008/4008, HMC Premedical S.p.A., Italy). […]
(§6) To examine the activation of crucial pathways involved in the interaction of blood with the artificial surface of the dialyzer, complement, coagulation and neutrophil activation were analyzed. Briefly, complement activation was measured in plasma using a monoclonal antibody C3-9 (2 ug/ml), which recognizes a neoantigen that is exposed in C3(H2O), C3b and C3c but not in native C3. Neutrophil activation was assessed using flow cytometry after surface staining of CD11b (PE Mouse Anti-human CD11b/Mac-1, Cat. No 555388, BD Pharmigen). […]

[6] = system: CD11b on blood neutrophils; assay: hemodialysis simulation with whole blood: flow cytometry of CD11b on blood neutrophils; assay type: cell-based, human; conditions: in words; 40 uM in whole blood circuit; FIG. 7B
Source text: as §3, §4, §5, §6

[7] = system: tissue factor (TF) in blood neutrophils; assay: hemodialysis simulation with whole blood: flow cytometry of intracellular tissue factor in blood neutrophils; assay type: cell-based, human; conditions: in words; 40 uM in whole blood circuit; FIG. 7C
Source text: as §3, §4, §5, §6

[8] = PMNs preincubated with receptor antagonist (10 μM-30 min), then ESRD serum of 15 to 30 min of hemodialysis, no antagonist bar 3: 22.96±0.22, control bar 1: 31.96±0.21

## NC(N)=NCCC[C@H](NC(=O)COCC(c1ccccc1)c1ccccc1)C(=O)O [C3aR antagonist, SB-290152]
[1]; [8]
  mPT values: 22.99±0.26
[1]
  effect on procoagulant activity (mPT) induced by ESRD serum in PMN supernatants: did not affect the mPT values
[2]; in words, FIG. 5B/5C
  effect on procoagulant activity induced by filter-fiber treated serum in neutrophil supernatants: no effect on the procoagulant activity

## Acetyl-Phe-[Orn-Pro-D-cyclohexylalanine-Trp-Arg] (FXPXWR; non-natural residues; cyclised or stapled) [C5aR antagonist]
[1]; [8]
  mPT values: 31.65±0.28
[1]
  effect on procoagulant activity (mPT) induced by ESRD serum in PMN supernatants: abrogated the observed procoagulant activity
[3]; PMNs incubated with activated serum bar 1: 7.92±0.29
  average DCt of TF mRNA: 9.02±0.62
[3]; vs. PMNs incubated with activated serum (bar 1)
  fold decrease of TF mRNA expression: 2.14 fold
[3]; in words
  effect on TF expression in PMNs (2^−DDCT analysis): inhibited the stimulation effect
[2]; healthy serum preincubated 60 min with filter fibers, without inhibitor bar 3: 25.65±0.78
  mPT: 29.15±0.49
[2]; predialysis ESRD serum preincubated 60 min with filter fibers, without inhibitor bar 6: 20.06±0.35
  mPT: 26.05±0.35

## IAVWQDWGAHRTAT-NH2 [non-active linear analogue of compstatin, reference compound]
[1]; ESRD serum taken at 15 to 30 min of hemodialysis treated with peptide (15 μM-30 min), healthy donor's PMNs (N=6), untreated serum bar 3: 22.96±0.22, control bar 1: 31.96±0.21
  mPT values: 24.16±0.23
[4]
  inhibition of complement activation induced by hemodialysis biomaterials (C3b generation): not inhibited

## I[CV^(1−Me)WQDWGAHRC]I—NH2 [compstatin analog 4[1MeW]]
[5]
  effect on time-dependent complement activation (C3 cleavage products in plasma): abrogated this activation
[6]
  effect on cellular activation (CD11b surface staining of neutrophils): attenuated
[7]
  effect on coagulation cascade activation (intracellular TF in neutrophils): attenuated
